Where two headings read alike, the source gives them in different places.
Legend:
5-lipoxygenase (5-LO) [1] = molecular target: 5-lipoxygenase (5-LO); parameters: method as in PMID 31523435; conditions: read-out: IC50 in whole blood; cited from earlier work
5-lipoxygenase (5-LO) [2] = molecular target: 5-lipoxygenase (5-LO); parameters: method as in PMID 31523435; conditions: read-out: IC50 in isolated human neutrophils; cited from earlier work
5-LO [3] = molecular target: T1, 5-LO (Homo sapiens, UniProt P09917); experiment: cell-free 5-LO activity assay with purified human recombinant 5-LO; type: biochemical; parameters: made in house; conditions: for IC50: purified human recombinant 5-LO, 20 μM AA, read-out: Cell-free (IC50 of 5-LO activity); for 5-LO inhibition in the cell free assay: up to 10 μM
T1 sequence (P09917 1-674): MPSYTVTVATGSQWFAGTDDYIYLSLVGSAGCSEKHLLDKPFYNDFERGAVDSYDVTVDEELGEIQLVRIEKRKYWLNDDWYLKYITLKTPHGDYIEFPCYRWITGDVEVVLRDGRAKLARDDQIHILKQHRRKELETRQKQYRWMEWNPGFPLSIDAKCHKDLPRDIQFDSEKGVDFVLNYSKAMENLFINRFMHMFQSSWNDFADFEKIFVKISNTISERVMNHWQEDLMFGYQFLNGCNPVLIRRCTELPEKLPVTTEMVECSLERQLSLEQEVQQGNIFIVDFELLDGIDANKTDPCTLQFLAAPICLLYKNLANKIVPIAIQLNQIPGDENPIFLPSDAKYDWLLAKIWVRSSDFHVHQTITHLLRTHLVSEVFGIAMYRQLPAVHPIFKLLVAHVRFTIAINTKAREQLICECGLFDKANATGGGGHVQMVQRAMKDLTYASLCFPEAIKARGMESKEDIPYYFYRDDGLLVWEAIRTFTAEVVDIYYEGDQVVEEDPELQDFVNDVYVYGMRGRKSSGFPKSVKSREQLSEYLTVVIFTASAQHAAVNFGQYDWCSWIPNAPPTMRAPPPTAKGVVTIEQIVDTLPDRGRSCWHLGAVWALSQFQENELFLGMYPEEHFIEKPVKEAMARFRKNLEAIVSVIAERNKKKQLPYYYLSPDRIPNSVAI
Description: 5-LO was expressed in E. coli B121 (DE3) transformed with pT3- 5LO plasmid, and purification of 5-LO was performed as described previously. Briefly, E. coli was lysed in 50 mM tri-ethanolamine/HCl, pH 8.0, 5 mM EDTA, […] soybean trypsin inhibitor, 1 mM phenylmethanesulfonyl fluoride, 1 mM dithiothreitol and 1 mg/mL lysozyme and then sonified (3 × 15 s). The homogenate was then centrifuged at 40,000g for 20 min at 4°C. 5-LO in the supernatant was partially purified by affinity chromatography on an ATP-agarose column (Sigma-Aldrich). Semi-purified 5-LO was diluted in PBS containing EDTA (1 mM) and ATP (1 mM) and immediately used for 5-LO activity assays. Samples were pre-incubated with the test compounds or vehicle (0.1 % DMSO) for 10 min at 4°C. Samples were pre-warmed for 30 s at 37°C, and 2 mM CaCl2 plus the indicated concentrations of AA were added to start 5-LO product formation. The reaction was stopped after 10 min by addition of one volume of ice-cold methanol, and the formed metabolites were analyzed by HPLC. 5- LO products include the all-trans isomers of LTB4 as well as 5-HPETE and its corresponding alcohol 5-HETE.

5-LO [4] = molecular target: T1, 5-LO; experiment: 5-LO product formation in intact human PMNL (neutrophils); type: cell-based; parameters: endogenous in cells; host or cells: human PMNL from peripheral blood of healthy volunteers; conditions: intact human PMNL
Description: PMNL and monocytes were isolated from human peripheral blood of adult healthy volunteers, with consent, obtained from the Institute of Transfusion Medi-cine, University Hospital Jena (Germany). PMNL were immediately isolated by dextran sedi-mentation, centrifugation on Nycoprep cushions, and hypotonic lysis of erythrocytes, as described. PMNL viability was analyzed by trypan blue exclusion with a Vi-cell counter (Beckmann Coulter GmbH, Krefeld). HEK-293 cells were grown in DMEM/High Glucose (4.5 g/L) medium supplemented with heat-inactivated fetal calf serum (FCS, 10 %, vv_1), 100 U/mLpenicillin, and 100 µg/mL streptomycin at 37 °C in a 5 % CO2 incubator. HEK-293 cells were stably transfected with 5-LO and FLAP as validated experimental cell-based model for studying the regulation of 5-LO [28]. None of the cell lines used in this study were authenticated.
Freshly isolated human PMNL (5 × 10^6) were resuspended in 1 mL PBS buffer containing 1 mg/mL glucose (PG buffer). […] After 10 min at 37 °C, the reaction was stopped with 1 mL of methanol for 10 min on ice and LO products formed and released in the supernatants were extracted and analyzed by HPLC. In detail, after centrifugation (800g, 10 min, room temperature) the samples were applied to C-18 solid-phase extraction columns (100 mg; IST, Mid Glamorgan, United Kingdom), preconditioned with 1 mL methanol and 1 mL water. The columns were washed with 1 mL water and 1 mL water/methanol (75/25, vol/vol) and 5-LO metabolites were eluted with 300 μL methanol. The extract was then diluted with 120 μL water, and 100 μL diluted extract were analyzed by HPLC using a C-18 Radial-Pak column (Waters) eluted with methanol/water/acetic acid 75/25/0.1 (vol/vol/vol) at a flow rate of 1.2 mL/min. Amounts of different metabolites were determined by peak area integration. 5-LO products analyzed include LTB4 and its two all-trans isomers, 5(S)-hydroxy-6-trans-8,11,14-cis-eicosatetraenoic acid (5-HETE), and 5(S)-hydroper-oxy-6-trans-8,11,14-cis-eicosatetraenoic acid (5-HpETE). 5-HETE and 5-HpETE coelute as one major peak, and the integration of this peak represented both eicosanoids.

human PMNLs = experiment: Lactate dehydrogenase release (LDH assay) in PMNL; type: cell-based
Description: After treatment of PMNL, supernatants were centrifuged (600g × 5 min, 4 °C), and 100 μL of supernatant were mixed with 200 μL LDH reaction buffer (75 mM Tris/HCl, pH 7.4, 0.3 mM NADH, 1.5 mM Na-pyruvate) in a 96-well plate. The decrease of NADH was measured immediately by absorbance at 340 nm in a kinetic mode (every 7 s for 20 min; Multiskan Spectrum). As a positive control for maximal LDH release, cells treated with 1 % Triton X-100 were included in each experiment, while untreated cells and vehicle (DMSO) served as negative controls.

12-LO = molecular target: T2, 12-LO (Homo sapiens, UniProt P18054); experiment: 12-LO product formation in intact human PMNL; type: cell-based; conditions: for IC50: PMNL, 2.5 μM A23187 plus 20 μM AA, read-out: LTC4; for effect on 12-LO activity: at 10 μM
T2 construct: endogenous in cells; host or cells: human PMNL preparations
T2 sequence (P18054 1-663): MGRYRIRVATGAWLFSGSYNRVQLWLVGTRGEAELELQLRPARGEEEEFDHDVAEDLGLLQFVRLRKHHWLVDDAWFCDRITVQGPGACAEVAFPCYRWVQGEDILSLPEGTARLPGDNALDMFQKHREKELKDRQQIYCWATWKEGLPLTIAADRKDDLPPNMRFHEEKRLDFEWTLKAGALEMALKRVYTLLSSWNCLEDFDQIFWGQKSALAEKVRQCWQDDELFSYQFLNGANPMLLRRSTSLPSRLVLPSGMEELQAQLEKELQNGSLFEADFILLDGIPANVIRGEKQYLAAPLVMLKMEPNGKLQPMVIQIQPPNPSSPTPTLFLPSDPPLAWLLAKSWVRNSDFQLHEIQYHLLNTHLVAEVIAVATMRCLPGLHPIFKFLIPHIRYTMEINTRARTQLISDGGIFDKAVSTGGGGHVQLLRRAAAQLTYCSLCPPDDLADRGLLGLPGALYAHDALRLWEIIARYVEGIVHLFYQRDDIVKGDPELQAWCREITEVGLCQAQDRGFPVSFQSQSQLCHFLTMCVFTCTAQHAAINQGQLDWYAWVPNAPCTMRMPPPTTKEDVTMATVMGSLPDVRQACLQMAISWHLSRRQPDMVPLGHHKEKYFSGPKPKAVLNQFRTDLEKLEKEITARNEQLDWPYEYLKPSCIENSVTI

mPGES-1 = tested on: mPGES-1; parameters: method as in PMID 23871907; conditions: cited from earlier work
5-LO [5] = tested on: 5-LO; parameters: method as in PMID 23871907; conditions: cited from earlier work
[6] = […] A23187 plus 20 μM AA, 10 min, read-out: Cell-based A23187 + AA (IC50 of 5-LO product formation)

| SMILES | IC50 (5-lipoxygenase (5-LO) [1]) [nM] | IC50 (5-lipoxygenase (5-LO) [2]) [nM] | IC50 (5-LO [3]) [nM] | 5-LO inhibition in the cell free assay (5-LO [3]) | IC50 (5-LO [4]; […] A23187, 10 min, read-out: Cell-based A23187 (IC50 of 5-LO product formation)) [nM] | IC50 (5-LO [4]; [6]) [nM] | cytotoxicity on PMNL (LDH levels in the supernatants) (human PMNLs) | IC50 (12-LO) [nM] | effect on 12-LO activity (12-LO) | IC50 (mPGES-1) [nM] | IC50 (5-LO [5]) [nM] |
| --- | --- | --- | --- | --- | --- | --- | --- | --- | --- | --- | --- |
| O=C(/C=C/c1ccc(O)c(O)c1)OCCc1ccccc1 [CAPE, Caffeic acid phenethyl ester] | 1800 | 500 | – | – | – | – | – | – | – | – | – |
| CCCC/C=C\CCCCCCCCCc1cccc(OC(C)=O)c1OC(C)=O [AI, (Z)-1,2-diacetoxy-3-(pentadec-10′-enyl)-benzene] | – | – | > 10000 | No significant 5-LO inhibition | > 10000 | 1500 ± 1400 | comparable to those of untreated controls | > 10000 | no significant effect | – | – |
| CCCCCCCCCCCC1=C(O)C(=O)C=C(O)C1=O [embelin] | – | – | – | – | – | – | – | – | – | 200 | 60 |
| CCCCCCCCCCCCCCCc1cccc(OC(C)=O)c1OC(C)=O [AS, 1,2-diacetoxy-3-pentadecylbenzene] | – | – | > 10000 | No significant 5-LO inhibition | – | > 10000 | comparable to those of untreated controls | > 10000 | no significant effect | – | – |
